From article PMC8225760, “Residue 6.43 defines receptor function in class F GPCRs” (Nature Communications, 2021)
Substitutions are numbered along the chain they refer to.

Columns and labels:
Format in all cases: cell-based
[1] = target: T1, FZD6 (HiBiT-FZD6; FZD6-Nluc) (Homo sapiens, UniProt O60353); assay: BRET Venus-mGsi recruitment to receptor-Nluc in deltaSMO HEK293A cells; conditions: agonist; bell-shaped concentration response; read 5 min after addition
T1 construct: full-length receptor; expressed in deltaSMO HEK293A cells; UniProt id given for the homology model
T1 sequence (O60353 19-706): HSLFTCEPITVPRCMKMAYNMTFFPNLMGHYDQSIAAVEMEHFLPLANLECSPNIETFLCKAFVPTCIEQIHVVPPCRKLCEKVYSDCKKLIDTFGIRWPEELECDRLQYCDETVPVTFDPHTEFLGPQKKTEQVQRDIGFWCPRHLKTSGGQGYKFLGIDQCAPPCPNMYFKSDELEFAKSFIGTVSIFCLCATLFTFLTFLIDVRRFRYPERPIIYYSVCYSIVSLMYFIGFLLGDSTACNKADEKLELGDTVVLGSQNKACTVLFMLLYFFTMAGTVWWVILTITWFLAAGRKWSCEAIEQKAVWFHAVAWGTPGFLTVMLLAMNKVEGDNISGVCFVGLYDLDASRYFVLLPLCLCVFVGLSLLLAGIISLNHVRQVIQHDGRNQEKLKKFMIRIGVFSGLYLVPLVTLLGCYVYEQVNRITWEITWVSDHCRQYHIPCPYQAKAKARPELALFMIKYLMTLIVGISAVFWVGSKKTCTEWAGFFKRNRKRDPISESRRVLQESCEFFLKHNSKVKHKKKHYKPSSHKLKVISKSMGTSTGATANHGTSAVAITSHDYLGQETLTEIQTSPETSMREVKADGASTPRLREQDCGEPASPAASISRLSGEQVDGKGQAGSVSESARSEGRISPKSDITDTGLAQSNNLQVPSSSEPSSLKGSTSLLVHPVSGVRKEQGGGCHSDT

[2] = target: T2, SMO (HiBiT-SMO; SMO-Nluc) (Mus musculus, UniProt P56726); assay: NanoBiT/BRET saturation binding in live cells; conditions: HBSS, 90 min, 37 °C; cell-surface receptor; monophasic, lower 7TM site; labelled compound; error SD
T2 construct: full-length receptor; C-terminal Nluc (SMO-Nluc) for miniGsi recruitment; expressed in deltaSMO HEK293A cells
T2 sequence (P56726 33-793): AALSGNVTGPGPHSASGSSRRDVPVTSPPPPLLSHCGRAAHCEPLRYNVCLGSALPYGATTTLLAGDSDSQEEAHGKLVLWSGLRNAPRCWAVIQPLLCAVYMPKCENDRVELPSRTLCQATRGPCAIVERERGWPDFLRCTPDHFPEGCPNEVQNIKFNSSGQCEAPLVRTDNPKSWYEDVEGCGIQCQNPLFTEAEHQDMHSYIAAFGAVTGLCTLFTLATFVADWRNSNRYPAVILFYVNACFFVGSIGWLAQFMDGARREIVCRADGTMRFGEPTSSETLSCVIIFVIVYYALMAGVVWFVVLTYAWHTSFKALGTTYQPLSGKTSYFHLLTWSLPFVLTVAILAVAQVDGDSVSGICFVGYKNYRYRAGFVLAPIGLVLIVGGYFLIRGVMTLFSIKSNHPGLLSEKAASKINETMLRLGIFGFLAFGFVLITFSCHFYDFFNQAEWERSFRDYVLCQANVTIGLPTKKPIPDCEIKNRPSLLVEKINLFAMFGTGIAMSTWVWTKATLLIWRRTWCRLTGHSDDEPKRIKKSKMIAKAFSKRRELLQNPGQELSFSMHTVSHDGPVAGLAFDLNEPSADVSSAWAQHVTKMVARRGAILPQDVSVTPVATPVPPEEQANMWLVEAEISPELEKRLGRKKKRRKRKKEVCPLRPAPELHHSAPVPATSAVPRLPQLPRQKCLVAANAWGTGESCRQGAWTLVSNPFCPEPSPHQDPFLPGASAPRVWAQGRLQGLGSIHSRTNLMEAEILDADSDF

[3] = target: T1, FZD6 (HiBiT-FZD6; FZD6-Nluc); assay: NanoBiT/BRET saturation binding in live cells; conditions: HBSS, 90 min, 37 °C; cell-surface receptor; upper 7TM site; labelled compound; error SD
[4] = target: T3, FZD6 (HiBiT-FZD6; FZD6-Nluc) (Homo sapiens, UniProt O60353, P427F); assay: NanoBiT/BRET saturation binding in live cells; conditions: HBSS, 90 min, 37 °C; cell-surface receptor; upper 7TM site; labelled compound; error SD
T3 construct: full-length receptor; expressed in deltaSMO HEK293A cells; UniProt id given for the homology model
T3 sequence (O60353 19-706 P427F): T1 sequence (O60353 19-706) with P409F

[5] = target: T4, SMO (HiBiT-SMO; SMO-Nluc) (Mus musculus, UniProt P56726, F466P); assay: NanoBiT/BRET saturation binding in live cells; conditions: HBSS, 90 min, 37 °C; cell-surface receptor; labelled compound; error SD
T4 construct: full-length receptor; C-terminal Nluc (SMO-Nluc) for miniGsi recruitment; expressed in deltaSMO HEK293A cells
T4 sequence (P56726 33-793 F466P): as the sequence (P56726 33-793) above, with F434P counted along it

With `CN[C@H]1CC[C@H](N(Cc2cccc(-c3ccncc3)c2)C(=O)c2sc3ccccc3c2Cl)CC1` [SAG1.3] the “BRET Venus-mGsi recruitment to receptor-Nluc in deltaSMO HEK293A cells” value [1] was “SAG1.3-induced mGsi recruitment to SMO, while that to FZD6 remained unaffected”.
`CC1=C2CC3C(CC=C4C[C@@H](O)CCC43C)C2CCC12O[C@@H]1CC(C)CN(CCNC(=O)CCCCCNC(=O)CCC3=[N+]4C(=Cc5c(C)cc(C)n5[B-]4(F)F)C=C3)C1C2C` (some centres unmarked) [BODIPY-cyclopamine] was tested, and the pKd [2] was 6.87 ± 0.13 -log10 M, the pKd [3] was 6.45 ± 0.23 -log10 M and the pKd [4] was 6.28 ± 0.20 -log10 M. For the same compound, the pKd [5] was 5.44 ± 1.02 -log10 M.
